The series relates to rodent carcinogenicity bioassays, tumor incidence. Briefly: CCRIS carcinogenicity studies. In short, it runs like this: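 Archive of carcinogenicity, mutagenicity, tumor promotion and tumor inhibition results drawn from journals, NCI reports and other sources, expert-reviewed; covers 1985-2011 and is no longer updated.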
[1] abbreviates: Species: MOUSE, Route: DERMAL, Tumor Site: Type of Lesion: INTEGUMENTARY SYSTEM (SKIN).

Each structure is given as a SMILES string. Calls of active or inactive are those of the source. The rule behind the calls is not given here.

Consider `c1ccc2c3c(ccc2c1)-c1cccc2cccc-3c12`, for which the carcinogen call under setting [1] was “active; positive”; the carcinogen call (Species: MOUSE, Strain/Sex: CD-1/FEMALE, Route: INTRAPERITONEAL, Dose: 0, 0.11, 0.275, 1.1 UMOL (TOTAL DOSE) ADMINISTERED OVER DAYS 1, 8, AND 15 OF LIFE (STUDY DURATION: 52 WEEKS), Dose: 0, 0.11, 0.275, 1.1 UMOL (TOTAL DOSE) ADMINISTERED OVER DAYS 1, 8, AND 15 OF LIFE (STUDY DURATION: 52 WEEKS), Tumor Site: Type of Lesion: LUNG: ALVEOLAR/BRONCHIOLAR CARCINOMA) was “active; positive”; the carcinogen call (Species: MOUSE, Strain/Sex: CD-1/MALE, Route: INTRAPERITONEAL, Dose: 0, 0.11, 0.275, 1.1 UMOL (TOTAL DOSE) ADMINISTERED OVER DAYS 1, 8, AND 15 OF LIFE (STUDY DURATION: 52 WEEKS), Dose: 0, 0.11, 0.275, 1.1 UMOL (TOTAL DOSE) ADMINISTERED OVER DAYS 1, 8, AND 15 OF LIFE (STUDY DURATION: 52 WEEKS), Tumor Site: Type of Lesion: LUNG: ALVEOLAR/BRONCHIOLAR CARCINOMA, LIVER: ADENOMA OR CARCINOMA) is “active; positive”; the carcinogen call (Species: RAT, Strain/Sex: OSBORNE-MENDEL/FEMALE, Route: LUNG IMPLANT, Dose: 0, 0.2, 1.0, 5.0 MG IN BEESWAX/TRIOCTANOIN (STUDY DURATION: LIFETIME), Dose: 0, 0.2, 1.0, 5.0 MG IN BEESWAX/TRIOCTANOIN (STUDY DURATION: LIFETIME), Tumor Site: Type of Lesion: LUNG: EPIDERMOID CARCINOMA) was “active; positive”.

In the case of `Cc1cccc2c(C)c3c(ccc4ccccc43)c(C)c12`, the carcinogen call reads like this: (Species: MOUSE, Strain/Sex: C57BL/MALE,FEMALE, Route: DERMAL, Tumor Site: Type of Lesion: INTEGUMENTARY SYSTEM (SKIN): PAPILLOMA, EPITHELIOMA, SARCOMA) “active; positive”; (Species: MOUSE, Strain/Sex: DBA/MALE,FEMALE, Route: DERMAL, Tumor Site: Type of Lesion: INTEGUMENTARY SYSTEM (SKIN): PAPILLOMA, EPITHELIOMA, SARCOMA) “active; positive”; (Species: MOUSE, Strain/Sex: DBF1/MALE,FEMALE, Route: DERMAL, Tumor Site: Type of Lesion: INTEGUMENTARY SYSTEM (SKIN): PAPILLOMA, EPITHELIOMA, SARCOMA) “active; positive”; (Species: RAT, Strain/Sex: LONG-EVANS/FEMALE, Route: INTRAVENOUS, Dose: 35 MG/KG, 0.5% IN DMSO DILUTED WITH COTTONSEED OIL-WATER EMULSION, 1/2 WK OR 1/10 D FOR 3-5 DOSES, Tumor Site: Type of Lesion: HEMATOPOIETIC SYSTEM (LEUKEMIA)) “active; positive”; (Species: RAT, Strain/Sex: LONG-EVANS/MALE, Route: INTRAMUSCULAR, Dose: 2.5 MG IN 0.5 ML SESAME OIL ONCE, Tumor Site: Type of Lesion: INJECTION SITE: SARCOMA) “active; positive”; (Species: RAT, Strain/Sex: LONG-EVANS/MALE, Route: INTRAVENOUS, Dose: 35 MG/KG, 0.5% IN DMSO DILUTED WITH COTTONSEED OIL-WATER EMULSION, 1/2 WK FOR 4 DOSES, Tumor Site: Type of Lesion: HEMATOPOIETIC SYSTEM (LEUKEMIA)) “active; positive”.

Consider `CC(=O)Nc1ccc(C(=O)CCl)cc1`, for which the carcinogen call (Species: MOUSE, Strain/Sex: B6C3F1/FEMALE, Route: ORAL, Dose: 0, 5000, 10000 PPM IN DIET, Dose: 0, 5000, 10000 PPM IN DIET) is “inactive; negative”; the carcinogen call (Species: MOUSE, Strain/Sex: B6C3F1/MALE, Route: ORAL, Dose: 0, 5000, 10000 PPM IN DIET, Dose: 0, 5000, 10000 PPM IN DIET) is “inactive; negative”; the carcinogen call (Species: RAT, Strain/Sex: F344/FEMALE, Route: ORAL, Dose: 0, 1000, 2000 PPM IN DIET, Dose: 0, 1000, 2000 PPM IN DIET) was “inactive; negative”; the carcinogen call (Species: RAT, Strain/Sex: F344/MALE, Route: ORAL, Dose: 0, 1000, 2000 PPM IN DIET, Dose: 0, 1000, 2000 PPM IN DIET) was “inactive; negative”.

In the case of `c1ccc2c(c1)cc1ccc3cc4ccccc4c4ccc2c1c34`, the carcinogen call is “active; positive” (Species: HAMSTER, Route: SUBCUTANEOUS, Tumor Site: Type of Lesion: INJECTION SITE); “active; positive” under setting [1]; “active; positive” (Species: MOUSE, Route: SUBCUTANEOUS, Tumor Site: Type of Lesion: INJECTION SITE).

Turning to `O=P1(NCCCl)OCCCN1CCCl` (stereo not given), the carcinogen call was “active; positive” (Species: MOUSE, Strain/Sex: B6C3F1/FEMALE, Route: INTRAPERITONEAL, Dose: 0, 10, 20 MG/KG IN BUFFERED SALINE 3/WK FOR 52 WK (STUDY DURATION: 79-80 WK), Dose: 0, 10, 20 MG/KG IN BUFFERED SALINE 3/WK FOR 52 WK (STUDY DURATION: 79-80 WK), Tumor Site: Type of Lesion: LYMPHATIC SYSTEM: MALIGNANT LYMPHOMA); “inactive; negative” (Species: MOUSE, Strain/Sex: B6C3F1/MALE, Route: INTRAPERITONEAL, Dose: 0, 10, 20 MG/KG IN BUFFERED SALINE 3/WK FOR 52 WK (STUDY DURATION: 79-80 WK), Dose: 0, 10, 20 MG/KG IN BUFFERED SALINE 3/WK FOR 52 WK (STUDY DURATION: 79-80 WK)); “active; positive” (Species: MOUSE, Strain/Sex: STRAIN-A/MALE,FEMALE, Route: INTRAPERITONEAL, Dose: 0, 18.8, 47 MG/KG IN WATER 3/WK FOR 8 WK, Dose: 0, 18.8, 47 MG/KG IN WATER 3/WK FOR 8 WK, Tumor Site: Type of Lesion: LUNG); “active; positive” (Species: RAT, Strain/Sex: SPRAGUE-DAWLEY/FEMALE, Route: INTRAPERITONEAL, Dose: 0, 6, 12 MG/KG IN BUFFERED SALINE 3/WK FOR 52 WK (STUDY DURATION: 79-83 WK), Dose: 0, 6, 12 MG/KG IN BUFFERED SALINE 3/WK FOR 52 WK (STUDY DURATION: 79-83 WK), Tumor Site: Type of Lesion: MAMMARY GLAND: CYSTADENOMA OR CYSTADENOCARCINOMA, UTERUS: LEIOMYOSARCOMA;ADRENAL GLAND: CORTICAL ADENOMA, Tumor Site: Type of Lesion: MAMMARY GLAND: CYSTADENOMA OR CYSTADENOCARCINOMA, UTERUS: LEIOMYOSARCOMA;ADRENAL GLAND: CORTICAL ADENOMA); “inactive; negative” (Species: RAT, Strain/Sex: SPRAGUE-DAWLEY/MALE, Route: INTRAPERITONEAL, Dose: 0, 6, 12 MG/KG IN BUFFERED SALINE 3/WK FOR 52 WK (STUDY DURATION: 79-83 WK), Dose: 0, 6, 12 MG/KG IN BUFFERED SALINE 3/WK FOR 52 WK (STUDY DURATION: 79-83 WK)).

Consider `C#C[C@]1(O)CC[C@H]2[C@@H]3CCc4cc(OC)ccc4[C@H]3CC[C@@]21C`, for which the carcinogen call is, setting by setting: (Species: MOUSE, Route: ORAL, Tumor Site: Type of Lesion: MAMMARY GLAND, PITUITARY GLAND) “active; positive”; (Species: RAT, Route: ORAL, Tumor Site: Type of Lesion: MAMMARY GLAND) “active; positive”.

On to `CCCCCCCCCCCCCCN(C)N=O`, for which the carcinogen call (Species: RAT, Strain/Sex: F344/MALE, Route: GAVAGE, Dose: 0, 140 MG/ML IN CORN OIL 2/WK FOR 30 WK, STUDY DURATION: 110 WK, Dose: 0, 140 MG/ML IN CORN OIL 2/WK FOR 30 WK, STUDY DURATION: 110 WK, Tumor Site: Type of Lesion: BLADDER) was “active; positive”.

Turning to `CC(C)=CCC/C(C)=C/C=C/C(C)=C/C=C/C(C)=C/C=C/C=C(C)/C=C/C=C(C)/C=C/C=C(\C)CCC=C(C)C`, the carcinogen call (Species: MOUSE, Strain/Sex: C57BL/6J/MALE, Route: ORAL, Dose: 0, 50, 200 PPM IN DRINKING WATER FOR 80 WK (STUDY DURATION: 80 WK), Dose: 0, 50, 200 PPM IN DRINKING WATER FOR 80 WK (STUDY DURATION: 80 WK)) was “inactive; negative”.

`CCCN(CCC)S(=O)(=O)c1ccc(C(=O)O)cc1`: the carcinogen call by setting is: (Species: MOUSE, Strain/Sex: B6C3F1/FEMALE, Route: GAVAGE, Dose: 0, 100, 400 MG/KG IN CORN OIL 5 D/WK FOR 103 WK (STUDY DURATION: 105 WK), Dose: 0, 100, 400 MG/KG IN CORN OIL 5 D/WK FOR 103 WK (STUDY DURATION: 105 WK), Tumor Site: Type of Lesion: LIVER: HEPATOCELLULAR ADENOMA OR CARCINOMA) “active; positive”; (Species: MOUSE, Strain/Sex: B6C3F1/MALE, Route: GAVAGE, Dose: 0, 100, 400 MG/KG IN CORN OIL 5 D/WK FOR 103 WK (STUDY DURATION: 105 WK), Dose: 0, 100, 400 MG/KG IN CORN OIL 5 D/WK FOR 103 WK (STUDY DURATION: 105 WK)) “inactive; negative”; (Species: RAT, Strain/Sex: F344/FEMALE, Route: GAVAGE, Dose: 0, 100, 400 MG/KG IN CORN OIL 5 D/WK FOR 103 WK (STUDY DURATION: 104 WK), Dose: 0, 100, 400 MG/KG IN CORN OIL 5 D/WK FOR 103 WK (STUDY DURATION: 104 WK)) “inactive; negative”; (Species: RAT, Strain/Sex: F344/MALE, Route: GAVAGE, Dose: 0, 100, 400 MG/KG IN CORN OIL 5 D/WK FOR 103 WK (STUDY DURATION: 104 WK), Dose: 0, 100, 400 MG/KG IN CORN OIL 5 D/WK FOR 103 WK (STUDY DURATION: 104 WK)) “inactive; negative”.

(Values after PubChem BioAssay AID1259411 (Chemical Carcinogenesis Research Information System (CCRIS), 2018).)
